Experiment [1] has as its system H3RKO mice. Briefly: Anti-obesity test with Imetit, H3RKO mice. The experiment is classed as in vivo. From the text:
(§1) Histamine H3 receptor knockout mice (hereinafter referred to as “H3RKO mice”) were produced by the method of Takahashi et al. (J. Clin. Invest, Vol. 110, p. 1791, 2002). The obtained knockout mice were subjected to back crossing with C57BL/6J over 5 generations. Six- to nine-month-old male litters were used in an acute drug administration test. On the other hand, 18- to 20-month-old mice whose parents were H3RKO mice or wild type mice (N5 of C57BL/6J) were used in a chronic drug administration test.
(§2) All mice were individually bred at 25° C., and light and dark were controlled every 12 hours. During breeding, water and feed were freely given to the mice. As such feed, CE2 (CLEA Japan, Inc.) was given to thin mice, and medium high fat diet (Oriental Bio Service Co., Ltd.) was given to DIO mice.
(§3) The concentration of each compound was set at 5 ml/kg.
(§4) Mice were divided into groups, depending on mean body weight and the amount of daily food intake before administration of the compound. The body weight and the amount of food intake were measured every day.
(§5) In the test using Thioperamide, mice were divided into 4 groups: a group in which a solvent was administered to C57BL/6J DiO mice at 9:00; a group in which 10 mpk Thioperamide was administered thereto at 9:00; a group in which a solvent was administered to C57BL/6J DiO mice at 17:00; and a group in which 10 mpk Thioperamide was administered thereto at 17:00. […] On the 10th day after the administration, such mice were left in a starvation state for 2 hours. Thereafter, blood was collected from the orbit of each mouse, and the glucose and insulin levels were measured.
(§6) A change in body weight was calculated by dividing a decrease in body weight by the body weight on day 0 at initiation of the test, and the calculated value was expressed as a percentage. The degree of obesity was measured using an NMR analyzer (Minispec; Bruker).

Experiment [2] relates to wild type mice. Kind of experiment: Measurement of amount of food intake (and body weight), wild type mice. In kind it is in vivo.
Text: as §1, §2, §3
(§7) The amount of food intake was measured based on the weight of feed at 19:00 and 23:00.

For experiment [3], the system named is H3RKO mice. Kind of experiment: Measurement of amount of food intake (and body weight), H3RKO mice. In kind it is in vivo.
Text: as §1, §2, §3, §7

Experiment [4] has as its system wild type mice.
Text: as §1, §2, §3, §4, §5, §6

The subject of experiment [5] is C57BL/6J mice. Briefly: Measurement of energy consumption (indirect calorimetry). In kind it is in vivo. Particulars: Imetit 5 mpk and 20 mpk vs vehicle. The protocol:
Energy consumption was measured using Indirect calorimetry (Columbus Instrument). That is to say, C57BL/6J mice were acclimatized in a test chamber overnight, and VO2 (oxygen consumption) and VCO2 […] were then measured for 1 minute every 10 minutes. Sample air was collected every 10 minutes. RQ (respiratory quotient) was calculated by dividing […]. The test was carried out from 9:00 to 17:00. During the test, mice were allowed to freely ingest feed and water.

In experiment [6] the test system is C57BL/6J DiO mice. Kind of experiment: Anti-obesity test with Thioperamide. In kind it is in vivo. The note with it: 10 mpk Thioperamide at 9:00 or 17:00; FIG. 6. Here is the method: as §2, §3, §4, §5, §6
[7] abbreviates: H3RKO, 10th day after administration, 2 hours starvation, blood.
The mark [8] stands for this setting: H3RKO, Imetit twice a day, NMR analyzer.
Where [9] appears, read: Wild type, 10th day after administration, 2 hours starvation, blood.
Where [10] appears, read: Wild type, Imetit twice a day, NMR analyzer.

In the case of `N=C(N)SCCc1c[nH]cn1` [Imetit, carbamimidothioic acid 2-(1H-imidazol-4-yl)ethyl ester], in experiment [1] (H3RKO mice, Imetit twice a day), the body weight-decreasing effect result is recorded as “such effect was not observed in H3RKO mice”. The “Glucose” value in experiment [1] (setting [7]) was determined as 166.7 ± 10.5 mg/dL; in experiment [4] (setting [9]) it was 164.1 ± 6.4 mg/dL. In addition, the figures for the “Insulin” value in experiment [1] (setting [7]) and in experiment [4] (setting [9]) were 4.7 ± 0.9 ng/mL and 4.7 ± 0.8 ng/mL, respectively. Besides, the results for the “Fat (%)” value in experiment [1] (setting [8]) and in experiment [4] (setting [10]) were 46.3 ± 2.0% and 39.2 ± 2.0 %, respectively. Besides, the “Lean body mass (%)” value was 52.7 ± 1.4% in experiment [1] (setting [8]) and 58.3 ± 1.6 % in experiment [4] (setting [10]). Moreover, the entries for the “change in body weight” value in experiment [2] (FIG. 3) and in experiment [3] (FIG. 4) were “decreased depending on the number of doses” and “such a change in body weight was not observed”, respectively. Also, the “amount of food intake” value in experiment [2] (oral administration, vs solvent control mice, FIG. 1) is on record as “lower than that of control mice”; in experiment [3] (oral administration, vs solvent control mice, FIG. 2), “such a decrease in the amount of food intake was not observed”. For the same molecule, the abnormal glucose tolerance result in experiment [4] was “improved”. The “insulin concentration in blood” value in experiment [4] (together with fat-decreasing effect) is recorded as “decreased”. The “VO2 (oxygen consumption)” value in experiment [5] (FIG. 8, 11) is “increases”. Moreover, in experiment [5] (FIG. 9, 11), the VCO2 result was “increases”. The “RQ (respiratory quotient)” value in experiment [5] (FIG. 10, 11) was “decrease”.

As to `S=C(NC1CCCCC1)N1CCC(c2cnc[nH]2)CC1` [Thioperamide], the “body weight of fat mice” value in experiment [6] is “tendency that the body weight of fat mice was increased”.

Values taken from patent US20100137391A1, “Histamine H3 Agonist for use as Therapeutic Agent for a Lipid/Glucose Metabolic Disorder” (priority 2005, published 2010).
